Results: US20190308956A1, “PIPERAZINE DERIVATIVES AS ANTIVIRAL AGENTS WITH INCREASED THERAPEUTIC ACTIVITY” (SERVICIO ANDALUZ DE SALUD, priority 2016, published 2019)

Experiments:
HAdV5-GFP [1] = assay: Plaque assay, HAdV5-GFP in 293β5 cells; assay type: cell-based
Method in brief: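 293β5 cells infected with HAdV5-GFP at 0.06 vp/cell for 2 h at 37° C. Then overlaid with agar/EMEM containing compound (5 to 1 μM stated range; screen run at 10 μM). After 7 days at 37° C., GFP plaques imaged and counted relative to DMSO control.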

A549 cells = assay: Cytotoxicity assay (alamarBlue cell viability); assay type: cell-based, Human
Method in brief: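 Actively dividing A549 cells exposed to compounds for 48 h, then alamarBlue (1/10th in culture medium) added for a further 4 h. CC50 taken as concentration giving 50% cytotoxicity; selectivity index = CC50/IC50, with IC50 from HAdV infection inhibition.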

HAdV5-GFP [2] = assay: Entry assay, HAdV5-GFP in A549 cells (GFP expression); assay type: cell-based
Procedure: 1.3. Entry assay. An initial rapid screening was performed using human A549 epithelial cells (3×10^5 cells/well in Corning black wall, clear bottom 96-well plates) infected with HAdV5-GFP (2,000 vp/cell) in the presence of 50 μM of the candidate antiviral compounds. Virus was preincubated with the compounds (individual and mixed) for 45 minutes at 4° C., and then added to cells. A standard infection curve was generated in parallel by infecting cells in the absence of compounds using serial two-fold dilutions of virus. All reactions were done in triplicate. Cells, virus and compounds were incubated for 48 h at 37° C. and 5% CO2. Infection, as measured by HAdV-mediated GFP expression, was analyzed using a Typhoon 9410 imager (GE Healthcare Life Sciences), and quantified with ImageQuantTL (GE Healthcare Life Sciences).

[3] = test system: Acinetobacter baumannii strains resistant to colistine; assay: Minimal inhibitory concentration (MIC), microdilution in MHBII; assay type: cell-based; conditions: 5×10^5 CFU/ml, 18 h; for CMI (MIC) Ab 11: strain Ab 11, MHBII; for CMI (MIC) Ab 14: strain Ab 14, MHBII; for CMI (MIC) Ab 17: strain Ab 17, MHBII; for CMI (MIC) Ab 21R: strain Ab 21R; for CMI (MIC) Ab 21R / CMI (MIC) Ab 22P: MHBII; for CMI (MIC) Ab 22P: strain Ab 22P; for CMI (MIC) Ab 24: strain Ab 24, MHBII
Text: (§1) All of the strains used were Acinetobacter baumannii strains resistant to colistine: Resistance (R)≥4 Sensibility (S)≤2—All of these strains have been disclosed in Valencia R, Arroyo L A, Conde M, Aldana J M, Torres M J, Fernandez-Cuenca F, et al. Nosocomial outbreak of infection with pan-drug-resistant Acinetobacter baumannii in a tertiary care university hospital. Infection control and hospital epidemiology. 2009; 30(3):257-63. The specific strains used were the following: 1, 10, 11, 14, 16, 17, 19, 20, 21R, 22P, 24, 99 and 113.
Microdilution in cell medium Mueller Hinton Broth II (MHBII). This technique was carried out solely in those piperazines which presented inhibitory activity in the screening study.
We used decreasing concentrations of each piperazine derivative (from 50 μM -0.05 μM) in a concentration of 5×10^5 CFU/ml of each strain of A. baumannii in 96 well plates. These plates were incubated for 18 hours at a temperature 37° C.

[4] = test system: Acinetobacter baumannii strains resistant to colistine; assay: Screening of inhibition of bacterial growth at 50 μM; assay type: cell-based; conditions: 5×10^5 CFU/ml, 18 h; for Screening, growth inhibition Ab 11: strain Ab 11, 50 μM; for Screening, growth inhibition Ab 14: strain Ab 14, 50 μM; for Screening, growth inhibition Ab 17: strain Ab 17, 50 μM; for Screening, growth inhibition Ab 21R: strain Ab 21R; for Screening, growth inhibition Ab 21R / Screening, growth inhibition Ab 22P: 50 μM; for Screening, growth inhibition Ab 22P: strain Ab 22P; for Screening, growth inhibition Ab 24: strain Ab 24, 50 μM
Text: as §1
Evaluation of the inhibition of the bacterial growth of the 4 families of piperazines derivatives was performed by using a final concentration of 50 μM of each piperazine derivative in a concentration of 5×10^5 CFU/ml of each strain of A. baumannii in 96-well plates.
These plates were incubated for 18 hours at 37° C.

wild-type HAdV5 = assay: Virus yield reduction (burst assay, TCID50), HAdV5; assay type: cell-based
Procedure: 1.8. Virus yield reduction. The effect of the active compounds on virus production was evaluated in a burst assay A549 cells were infected with wild-type HAdV5 or HAdV16 (MOI 100) in the presence or absence of 50 μM compounds. After 48 h, cells were harvested and subjected to three rounds of freeze/thaw. Serial dilutions of clarified lysates were titrated on A549 cells and TCID50 values were calculated using an endpoint dilution method.46

SMILES	Inhibition assay in plaque (HAdV5-GFP [1])	CC50 (A549 cells)	Starting Inhibition assay (HAdV5-GFP [2])	CMI (MIC) Ab 11 [3]	CMI (MIC) Ab 14 [3]	CMI (MIC) Ab 17 [3]	CMI (MIC) Ab 21R [3]	CMI (MIC) Ab 22P [3]	CMI (MIC) Ab 24 [3]	Screening, growth inhibition Ab 11 [4]	Screening, growth inhibition Ab 14 [4]	Screening, growth inhibition Ab 17 [4]	Screening, growth inhibition Ab 21R [4]	Screening, growth inhibition Ab 22P [4]	Screening, growth inhibition Ab 24 [4]	YIELD REDUCTION (wild-type HAdV5)	IC50 (HAdV5-GFP [1]; read-out: IC50 plaque)
CC1CN(C(=O)OC(C)(C)C)CCN1C(=S)Nc1ccc(C#N)cc1 (stereo not shown) [Vip 584]	88.91 ± 15.92	175 µM	58.11 ± 25.72	50 µM	50 µM	25 µM	50 µM	50 µM	50 µM	<50 µM	<50 µM	<50 µM	<50 µM	<50 µM	<50 µM	–	–
CC1CN(C(=O)Cc2ccccc2)CCN1C(=S)Nc1ccc(C#N)cc1 (stereo not shown) [Vip 635]	98.36 ± 2.13	175 µM	60.06 ± 17.39	50 µM	–	50 µM	50 µM	–	50 µM	<50 µM	–	<50 µM	<50 µM	–	<50 µM	18.39 ± 5.44	–
CC1CN(C(=O)Cc2ccccc2)CCN1C(=S)Nc1ccc(Cl)cc1 (stereo not shown) [Vip 629]	84.56 ± 15.72	175 µM	59.51 ± 17.45	25 µM	25 µM	25 µM	50 µM	–	50 µM	<50 µM	<50 µM	<50 µM	<50 µM	–	<50 µM	–	–
CC1CN(C(=O)OC(C)(C)C)CCN1C(=S)Nc1ccc(F)cc1 (stereo not shown) [Vip 585]	92.91 ± 3.82	200 µM	75.54 ± 13.76	–	–	–	–	–	–	–	–	–	–	–	–	12.08 ± 2.78	–
CC1CN(C(=O)Cc2ccccc2)CCN1C(=S)Nc1ccc([N+](=O)[O-])cc1 (stereo not shown) [Vip 628]	98.21 ± 3.57	210 µM	60.79 ± 17.31	50 µM	–	25 µM	–	–	50 µM	<50 µM	–	<50 µM	–	–	<50 µM	25.59 ± 10.45	2.04 µM
CC1CN(C(=O)OC(C)(C)C)CCN1C(=S)Nc1ccc(Cl)cc1 (stereo not shown) [Vip 580]	73.43 ± 4.19	167 µM	64.11 ± 16.81	50 µM	50 µM	50 µM	50 µM	50 µM	50 µM	<50 µM	<50 µM	<50 µM	<50 µM	<50 µM	<50 µM	–	–
